Read-outs that look alike come from different tables or passages of the source.
System: Nematospiroides dubius
Test: Evaluation (Efficacy) Test in Mice, Nematospiroides dubius
Type: in vivo
Settings: for inhibition in vivo at 0.1 %: 0.1 % diet; for inhibition in vivo at 0.025 %: 0.025 % diet; for inhibition in vivo at 0.05 %: 0.05 % diet
Excerpt: The primary target parasite of this test is Nematospiroides dubius (Family: Heligmosomidae), which is phylogenetically related to certain economically important parasites of domestic and farm animals. Mice are orally inoculated with 20 to 30 infective N. dubius larvae. Mixed infections are obtained by subsequent inoculation with Aspicularis tetraptera and Hymenolepis nana. Eighteen days after inoculation the mice are divided into groups of four. Each group receives one compound at a specified dose rate, either as a single gavage dose or fed continually in the feed. Four groups of five mice each are utilized as infected, untreated controls. […] Those mice receiving single oral doses (SOD) or a single subcutaneous injection (Sc) of 5 mg./kg. to 100 mg./kg. of animal body weight of the compound under test are treated 22 days after inoculation. Eight days after start of treatment (drug diet) and 4 days post treatment (single dose SOD or Sc), the mice are necropsied, the worms recovered and counted. Percent efficacy for Nematospiroides is calculated using the formula: % Efficacy Equals [formula]
The diet used in the test procedures is a standard commercial mouse chow containing meat and bone meal, dried skimmed milk, wheat germ meal, fish meal, animal liver meal, dried beet pulp, ground extended corn, oat middlings, soybean meal, dehydrated alfalfa meal, cane molasses. animal fat preserved with BHA, vitamin B-12 supplement, calcium panthotenate, choline chloride, folic acid, riboflavin supplement, brewer's dried yeast, thiamine, niacin, vitamin A supplement, D activated plant sterol, vitamin E supplement, dicalcium phosphate, iodized salt, ferric ammonium citrate, iron oxide, manganous oxide, cobalt carbonate, copper oxide and zinc oxide; and the desired level of test compound.
When the drug is administered as a single oral dose, the drug is weighed and suspended in 0.2% agar, thoroughly mixed and orally introduced at the required volume.

[1] = drug diet, 0.006 % diet, 7 days
[2] = drug diet, 0.0125 % diet, 7 days
[3] = Heligmosomoides polygyrus, po, 168 h, drug diet, 7 days, read-out: % Efficacy N.d.
[4] = Heligmosomoides polygyrus, po, single oral dose, read-out: % Efficacy N.d.
[5] = Heligmosomoides polygyrus, po, 168 h, drug diet, 0.0125 % diet, 7 days, read-out: % Efficacy N.d.
[6] = Heligmosomoides polygyrus, po, single oral dose, 10 mg/kg, read-out: % Efficacy N.d.
[7] = Heligmosomoides polygyrus, po, single oral dose, 25 mg/kg, read-out: % Efficacy N.d.
[8] = Heligmosomoides polygyrus, po, 168 h, drug diet, 0.006 % diet, 7 days, read-out: % Efficacy N.d.

With C(=P(c1ccccc1)(c1ccccc1)c1ccccc1)[P+](c1ccccc1)(c1ccccc1)c1ccccc1.[I-] [Type II, R1 Phenyl, X I, Triphenyl[(triphenylphosphoranylidene)methyl]-phosphonium Iodide] the “% Efficacy N.d.” value [1] was 89%, the “% Efficacy N.d.” value [2] was 100% and the “% Efficacy N.d.” value (single oral dose, 5 mg/kg) was 26%. The “% Efficacy N.d.” value (single oral dose, 10 mg/kg) was 67% and the “% Efficacy N.d.” value (single oral dose, 25 mg/kg) was 91%.

With C(=P(c1ccccc1)(c1ccccc1)c1ccccc1)[P+](c1ccccc1)(c1ccccc1)c1ccccc1 [Type II, R1 Phenyl, X not printed] the inhibition in vivo at 5 mg/kg (Heligmosomoides polygyrus, po, single oral dose, 5 mg/kg, dosage weight is that of the cation, read-out: % Efficacy N.d.) was 49%, the “% Efficacy N.d.” value [1] was 85% and the “% Efficacy N.d.” value [2] was 100%. For the same compound, the “% Efficacy N.d.” value (single oral dose, 10 mg/kg, dosage weight is that of the cation) was 63% and the “% Efficacy N.d.” value (single oral dose, 25 mg/kg, dosage weight is that of the cation) was 94%.

Compound Cc1ccc(P(=C[P+](c2ccccc2)(c2ccccc2)c2ccc(C)cc2)(c2ccccc2)c2ccccc2)cc1 [Type II, R1 p-tolyl, X Br] has an inhibition in vivo at 0.1 % [3] of 53%, an inhibition in vivo at 50 mg/kg [4] of 36% and an inhibition in vivo at 100 mg/kg [4] of 89%.

For C=CCC(=P(c1ccccc1)(c1ccccc1)c1ccccc1)[P+](c1ccccc1)(c1ccccc1)c1ccccc1 [Type II, R2 Allyl, X Br], the inhibition in vivo at 0.0125 % [5] was 33%, the inhibition in vivo at 0.025 % [3] was 100% and the inhibition in vivo at 10 mg/kg [6] was 60%. It also gave an inhibition in vivo at 25 mg/kg [7] of 86% and an inhibition in vivo at 50 mg/kg [4] of 100%.

c1ccc(CC(=P(c2ccccc2)(c2ccccc2)c2ccccc2)[P+](c2ccccc2)(c2ccccc2)c2ccccc2)cc1 [Type II, R2 Benzyl, X Br] was tested, and the inhibition in vivo at 0.0125 % [5] was 89%, the inhibition in vivo at 0.025 % [3] was 96% and the inhibition in vivo at 0.05 % [3] was 100%. It also gave an inhibition in vivo at 25 mg/kg [7] of 72% and an inhibition in vivo at 50 mg/kg [4] of 100%.

CSCC(=P(c1ccccc1)(c1ccccc1)c1ccccc1)[P+](c1ccccc1)(c1ccccc1)c1ccccc1 [Type II, R2 CH3 --S--CH2 --, X Cl, [2-(methylthio)-1-(triphenylphosphoranylidene)-ethyl]triphenylphosphonium Chloride] gave an inhibition in vivo at 0.025 % [3] of 56%, an inhibition in vivo at 0.05 % [3] of 65% and an inhibition in vivo at 0.1 % [3] of 97%.

In the case of CCC(=P(c1ccccc1)(c1ccccc1)c1ccccc1)[P+](c1ccccc1)(c1ccccc1)c1ccccc1 [Type II, R2 Ethyl, X I], the inhibition in vivo at 0.006 % [8] is reported as 46%, the inhibition in vivo at 0.0125 % [5] is reported as 74% and the inhibition in vivo at 0.025 % [3] is reported as 100%. It also gave an inhibition in vivo at 10 mg/kg [6] of 68%, an inhibition in vivo at 25 mg/kg [7] of 75% and an inhibition in vivo at 50 mg/kg [4] of 85%.

Work on IC(=P(c1ccccc1)(c1ccccc1)c1ccccc1)[P+](c1ccccc1)(c1ccccc1)c1ccccc1 [Type II, R2 I, X I] yielded an inhibition in vivo at 0.006 % [8] of 54%, an inhibition in vivo at 0.0125 % [5] of 98% and an inhibition in vivo at 0.025 % [3] of 100%. The inhibition in vivo at 50 mg/kg [4] was 70%.

CC(=P(c1ccccc1)(c1ccccc1)c1ccccc1)[P+](c1ccccc1)(c1ccccc1)c1ccccc1 [Type II, R2 Methyl, X I, Triphenyl[1-(triphenylphosphoranylidene)ethyl]-phosphonium Iodide] gave an inhibition in vivo at 0.003 % (Heligmosomoides polygyrus, po, 168 h, drug diet, 0.003 % diet, 7 days, read-out: % Efficacy N.d.) of 57%, an inhibition in vivo at 0.006 % [8] of 98% and an inhibition in vivo at 0.0125 % [5] of 99%. For the same compound, the inhibition in vivo at 5 mg/kg (Heligmosomoides polygyrus, po, single oral dose, 5 mg/kg, read-out: % Efficacy N.d.) was 65%, the inhibition in vivo at 10 mg/kg [6] was 96% and the inhibition in vivo at 25 mg/kg [7] was 98%. The inhibition in vivo at 5 mg/kg (Heligmosomoides polygyrus, sc, subcutaneous, 5 mg/kg, read-out: % Efficacy N.d.) was 80%, the inhibition in vivo at 10 mg/kg (Heligmosomoides polygyrus, sc, subcutaneous, 10 mg/kg, read-out: % Efficacy N.d.) was 95% and the inhibition in vivo at 25 mg/kg (Heligmosomoides polygyrus, sc, subcutaneous, 25 mg/kg, read-out: % Efficacy N.d.) was 100%.

In the case of COc1cccc(CC(=P(c2ccccc2)(c2ccccc2)c2ccccc2)[P+](c2ccccc2)(c2ccccc2)c2ccccc2)c1 [Type II, R2 m-methoxybenzyl, X Cl], the inhibition in vivo at 0.0125 % [5] is reported as 58%, the inhibition in vivo at 0.025 % [3] is reported as 88% and the inhibition in vivo at 0.05 % [3] is reported as 100%. For the same compound, the inhibition in vivo at 50 mg/kg [4] was 58% and the inhibition in vivo at 100 mg/kg [4] was 76%.

CCCCCCC(=P(c1ccccc1)(c1ccccc1)c1ccccc1)[P+](c1ccccc1)(c1ccccc1)c1ccccc1 [Type II, R2 n-Hexyl, X Br] gave an inhibition in vivo at 0.006 % [8] of 58%, an inhibition in vivo at 0.0125 % [5] of 79% and an inhibition in vivo at 0.025 % [3] of 100%. For the same compound, the inhibition in vivo at 25 mg/kg [7] was 39%, the inhibition in vivo at 50 mg/kg [4] was 61% and the inhibition in vivo at 100 mg/kg [4] was 94%.

From patent publication US3957978A, “Phosphonium anti-parasitics” (American Cyanamid Company, priority 1975, dated 1976)
